For one experiment, the target named is T1, ovine COX-1 (Ovis aries, UniProt P05979).
T1 sequence (P05979 25-600): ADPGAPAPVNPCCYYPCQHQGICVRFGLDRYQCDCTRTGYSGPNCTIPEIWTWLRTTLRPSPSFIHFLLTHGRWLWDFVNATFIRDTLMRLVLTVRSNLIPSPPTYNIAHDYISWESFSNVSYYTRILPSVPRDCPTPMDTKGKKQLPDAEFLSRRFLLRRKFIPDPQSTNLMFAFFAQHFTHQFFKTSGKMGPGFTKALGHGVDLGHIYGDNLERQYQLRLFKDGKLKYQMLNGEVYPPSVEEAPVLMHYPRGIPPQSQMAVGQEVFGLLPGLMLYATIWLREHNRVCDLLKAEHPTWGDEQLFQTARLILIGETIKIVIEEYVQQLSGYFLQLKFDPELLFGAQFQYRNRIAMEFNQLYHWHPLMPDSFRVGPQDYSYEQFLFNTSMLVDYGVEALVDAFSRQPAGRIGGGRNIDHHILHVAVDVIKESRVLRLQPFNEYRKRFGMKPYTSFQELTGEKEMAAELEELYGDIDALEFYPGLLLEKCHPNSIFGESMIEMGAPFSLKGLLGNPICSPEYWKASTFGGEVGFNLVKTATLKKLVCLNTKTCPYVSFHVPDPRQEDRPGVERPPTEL
As to the kind of experiment: In vitro COX-1 inhibition, enzyme immunoassay. The class given is biochemical.

The next experiment deals with T2, human recombinant COX-2 (Homo sapiens, UniProt P35354).
T2 sequence (P35354 18-604): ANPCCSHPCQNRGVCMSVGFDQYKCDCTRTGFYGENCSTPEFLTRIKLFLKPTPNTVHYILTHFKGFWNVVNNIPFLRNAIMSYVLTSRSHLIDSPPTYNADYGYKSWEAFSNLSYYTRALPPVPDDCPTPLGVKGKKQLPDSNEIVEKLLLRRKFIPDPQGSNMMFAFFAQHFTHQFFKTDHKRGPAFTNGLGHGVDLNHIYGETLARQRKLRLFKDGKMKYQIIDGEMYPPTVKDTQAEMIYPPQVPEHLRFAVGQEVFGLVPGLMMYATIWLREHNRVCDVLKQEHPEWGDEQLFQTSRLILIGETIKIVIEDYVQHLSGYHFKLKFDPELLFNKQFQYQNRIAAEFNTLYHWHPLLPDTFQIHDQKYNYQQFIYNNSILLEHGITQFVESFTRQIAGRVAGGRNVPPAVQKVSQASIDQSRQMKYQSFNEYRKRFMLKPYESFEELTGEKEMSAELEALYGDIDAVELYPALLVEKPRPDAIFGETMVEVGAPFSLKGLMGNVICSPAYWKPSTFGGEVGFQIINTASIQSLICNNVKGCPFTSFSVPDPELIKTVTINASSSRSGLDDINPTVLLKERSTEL
As to the kind of experiment: In vitro COX-2 inhibition, enzyme immunoassay. The class given is biochemical. The settings on record: for COX-2 S. I. (in vitro COX-2 selectivity index, COX-1/COX-2): ratio COX-1 IC50/COX-2 IC50.

Broadly, the IC50 is the concentration at which inhibition is half-maximal.

Compound `CCCCCCCCCCCC1=C(O)C(=O)C=C(O)C1=O` [Compound 1, 2,5-dihydroxy-3-undecyl-1,4-benzoquinone] registered an IC50 against ovine COX-1 of 6.42 µM. Moreover, on human recombinant COX-2, the IC50 stood at 2.98 µM and the “COX-2 S. I. (in vitro COX-2 selectivity index, COX-1/COX-2)” value is on record as 2.15.
`CCCCCCCCCCCC1=C(O)C(=O)C=C(NC)C1=O` [Compound 2, 2-Hydroxy-5-(methylamino)-3-undecylcyclohexa-2,5-diene-1,4-dione]: the values for the IC50 against ovine COX-1 and at human recombinant COX-2 were 6.54 µM and 3.1 µM, respectively. In addition, the “COX-2 S. I. (in vitro COX-2 selectivity index, COX-1/COX-2)” value on human recombinant COX-2 worked out at 2.11.
On ovine COX-1, `CCCCCCCCCCCC1=C(O)C(=O)C=C(NCCN(C)C)C1=O` [Compound 3, 5-(2-(Dimethylamino)ethylamino)-2-hydroxy-3-undecylcyclohexa-2,5-diene-1,4-dione] yielded an IC50 of 3.58 µM. For the same compound, on human recombinant COX-2, the concentration for half-maximal inhibition (IC50) was 1.65 µM and the “COX-2 S. I. (in vitro COX-2 selectivity index, COX-1/COX-2)” value amounted to 2.17.
At ovine COX-1, `CCCCCCCCCCCC1=C(O)C(=N/C)/C=C(O)C/1=N/C` [Compound 5, (3E, 6E)-3,6-bis(Methylimino)-2-undecylcyclohexa-1,4-diene-1,4-diol] yielded an IC50 of 7.65 µM. On human recombinant COX-2, the IC50 is 2.56 µM and the “COX-2 S. I. (in vitro COX-2 selectivity index, COX-1/COX-2)” value is 2.98.
Taken in the same sequence, the figures for `CCCCCCCCCCCC1=C(O)C(=N/CC)/C=C(O)C/1=N/CC` [Compound 6, (3E, 6E)-3,6-bis(Ethylimino)-2-undecylcyclohexa-1,4-diene-1,4-diol] were 6.85 µM, 2.15 µM and 3.18.
For `CCCCCCCCCCCc1c2oc3cccnc3nc-2cc(O)c1=O` [Compound 7, 8-hydroxy-6-undecyl-7H-benzo[b]pyrido[2,3-e][1,4]oxazin-7-one], in that order: 3.19 µM, 1.56 µM and 2.04.
Taken in the same sequence, the figures for `CCCCCCCCCCCC1=C(OC(C)=O)C(=O)C=C(OC(C)=O)C1=O` [Compound 8, 3,6-Dioxo-2-undecylcyclohexa-1,4-diene-1,4-diyl diacetate] were 2.25 µM, 1.23 µM and 1.83.
